Data reported in patent publication US10336726B2, “3-methyl-pyrrolidine-2,5-dione derivatives useful as CGRP receptor antagonists” (Eli Lilly and Company, priority 2017, dated 2019).
Where two headings read alike, the source gives them in different places.

Columns and labels:
[1] = target: T1, hCGRP (human calcitonin gene-related peptide) receptor (Homo sapiens, UniProt O60894+Q16602); assay: Inhibition of cAMP production by CGRP receptor antagonists in SK-N-MC cells (HTRF); type: cell-based; conditions: 0.8 nM human CGRP challenge, agonist-corrected IC50, mean±SEM, n=11, read-out: Kb measured at human CGRP
T1 construct: Cultured SK-N-MC neuroblastoma cells that endogenously express the hCGRP receptor (ATCC); host or cells: SK-N-MC neuroblastoma cells
From the text: Inhibition of cAMP Production by CGRP Receptor Antagonists
The hCGRP (human calcitonin gene-related peptide) receptor is functionally coupled to the Gas proteins. Stimulation of hCGRP results in an increased synthesis of intracellular cAMP and can be blocked by the addition of receptor antagonists. Receptor activity is thus a reflection of the amount of cAMP present within cells which can be detected using standard in vitro technology.
Cultured SK-N-MC neuroblastoma cells that endogenously express the hCGRP receptor (ATCC) are grown in Eagle's Minimum essential medium (HYCLONE™) supplemented with 10% heat-inactivated Fetal bovine serum (FBS; GIBCO®), Non-Essential Amino Acids (GIBCO®), 1 mM sodium pyruvate, 2 mM L-glutamine, 100 U/mL of penicillin, and 10 μg/mL of streptomycin to about 70% confluency. […]
The amount of intracellular cAMP is quantitated using HTRF technology (Cisbio) as per vendor instructions. […] The HTRF signal is immediately detected using an ENVISION® plate reader (Perkin-Elmer) to calculate the ratio of fluorescence at […]. […] Relative EC50 values are calculated from the top-bottom range of the concentration response curve using a four-parameter logistic curve fitting program (ACTIVITYBASE® v5.3.1.22 or GENEDATA SCREENER® v12.0.4), and Kb values are estimated as agonist-corrected IC50 values using the equation: Kb=(IC50)/[1+([Agonist]/EC50)]. […]

[2] = target: T2, ABCB1, human P-glycoprotein (Pgp) (Homo sapiens, UniProt P08183); assay: In vitro determination of efflux by Pgp; bi-directional transport across MDCKII cells; type: in vitro ADME; conditions: MDCKII cells expressing human ABCB1, 5 μM substrate, 60 min, B-A/A-B Papp ratios with/without inhibitor
T2 construct: host or cells: MDCKII cells
Method: In Vitro Determination of Efflux by ABCB1, Human P-Glycoprotein (Pgp)
MDCKII cells stably expressing human wild-type ABCB1 (Pgp) are obtained from the Netherlands Cancer Institute (Amsterdam, The Netherlands). MDCK cells are maintained as described previously (Desai et al., Mol Pharm 10:1249-1261, 2013).
The assay is essentially conducted as described previously (Desai et al., Mol Pharm 10:1249-1261, 2013). Transport is measured in both directions across uninhibited and inhibited cell monolayers using a substrate concentration of 5 μM diluted from a 10 mM DMSO stock solution (final DMSO concentration of 0.05%) and a single 60-min time interval. […] The apparent permeability coefficients (Papp) are estimated as the slope of the mass transported per 60 min relative to the total recovered mass. The basal-to-apical (B-A)/apical-to-basal (A-B) Papp ratios are calculated in the absence or presence of inhibitor in each cell line for net efflux ratio (NER). The NER of the compound of Example 1 for efflux by Pgp is determined to be 1.7.

[3] = Rat plasma and brain homogenate protein binding by equilibrium dialysis; type: in vitro ADME
Method: Determination of Plasma and Brain Protein Binding:
Rat plasma and brain homogenate protein in vitro binding is determined using equilibrium dialysis, as described elsewhere [Zamek-Gliszczynski et al., J Pharm Sci, 101:1932-1940, 2012]. The results are reported as fraction unbound in plasma (fu,plasma) and brain (fu,brain), which are then utilized to calculate Kp,uu,brain, as described in Table 1. Rat fu,plasma and fu,brain of the compound of Example 1 are determined to be 0.071 and 0.043, respectively.

[4] = In vivo determination of plasma and brain concentrations and unbound brain-to-plasma partition coefficient (Kp,uu,brain) in rats; conditions: for concentration at 1 h / concentration at 3 h: male, Sprague-Dawley, oral, 10 mg/kg
Method: In Vivo Determination of Unbound Brain-to-Plasma Partition Coefficient (Kp,uu,brain) in Rats
Unbound brain-to-plasma partition coefficient (Kp,uu,brain) is one of the key pharmacokinetic parameter for evaluating a compound's ability to cross the blood-brain barrier (BBB) (Hammarlund-Udenaes, M.; Friden, M.; Syvanen, S.; Gupta, A. On the Rate and Extent of Drug Delivery to the Brain. Pharm. Res. 2008, 25 (8), 1737-1750).
Animal studies are performed under protocols approved by the Covance Institutional Animal Care and Use Committee. Male Sprague-Dawley rats weighing 250-350 g are obtained from Harlan Sprague Dawley Inc. (Indianapolis, Ind.). Animals have access to food and water ad libitum before and during the study.
Animals each receive 10 mg/kg of the CGRP receptor antagonist compound of Example 1, administered orally in 10 ml/kg of hydroxyethylcellulose 1% w/v/polysorbate 80 0.25% v/v/Antifoam 1510-US 0.05% v/v/in purified water (probe sonicated).
Three animals per time point are used. […] The blood samples are treated with K3-EDTA anticoagulant, and plasma is obtained by centrifugation at 1600 g for 10 minutes. The brain samples are weighed and homogenized, without perfusion. All samples are stored at −70° C. until analysis by LC-MS/MS to determine the concentration of the compound of Example 1 in plasma and brain at each time point.
Kp,uu,brain is calculated for each time point from the expression below where individual components are derived from a combination of in vitro and in vivo measurements carried out as described above:
[formula] where Ctotal,brain, Cu,brain, Ctotal,plasma and Cu,plasma are total and unbound brain and plasma concentrations, and fu,brain and fu,plasma are fractions unbound in brain and plasma, respectively.

T1 sequence (Q16602 23-461): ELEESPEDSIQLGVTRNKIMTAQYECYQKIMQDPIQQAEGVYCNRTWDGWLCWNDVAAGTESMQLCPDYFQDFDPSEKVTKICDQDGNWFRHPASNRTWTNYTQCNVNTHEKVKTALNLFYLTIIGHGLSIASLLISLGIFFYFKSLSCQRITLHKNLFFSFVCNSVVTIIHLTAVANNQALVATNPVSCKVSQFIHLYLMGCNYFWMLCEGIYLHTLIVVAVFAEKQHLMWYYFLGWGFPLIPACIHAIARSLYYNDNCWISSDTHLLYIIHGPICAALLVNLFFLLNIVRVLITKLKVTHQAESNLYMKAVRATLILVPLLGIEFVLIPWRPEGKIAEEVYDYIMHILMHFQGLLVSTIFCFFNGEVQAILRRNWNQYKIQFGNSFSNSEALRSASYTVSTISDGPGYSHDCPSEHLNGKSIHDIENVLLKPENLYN
T1 sequence (O60894 27-148): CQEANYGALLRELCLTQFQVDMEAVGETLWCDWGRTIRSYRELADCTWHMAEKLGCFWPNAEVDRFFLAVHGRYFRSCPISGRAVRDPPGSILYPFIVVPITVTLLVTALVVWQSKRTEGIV
T2 sequence (P08183 whole entry): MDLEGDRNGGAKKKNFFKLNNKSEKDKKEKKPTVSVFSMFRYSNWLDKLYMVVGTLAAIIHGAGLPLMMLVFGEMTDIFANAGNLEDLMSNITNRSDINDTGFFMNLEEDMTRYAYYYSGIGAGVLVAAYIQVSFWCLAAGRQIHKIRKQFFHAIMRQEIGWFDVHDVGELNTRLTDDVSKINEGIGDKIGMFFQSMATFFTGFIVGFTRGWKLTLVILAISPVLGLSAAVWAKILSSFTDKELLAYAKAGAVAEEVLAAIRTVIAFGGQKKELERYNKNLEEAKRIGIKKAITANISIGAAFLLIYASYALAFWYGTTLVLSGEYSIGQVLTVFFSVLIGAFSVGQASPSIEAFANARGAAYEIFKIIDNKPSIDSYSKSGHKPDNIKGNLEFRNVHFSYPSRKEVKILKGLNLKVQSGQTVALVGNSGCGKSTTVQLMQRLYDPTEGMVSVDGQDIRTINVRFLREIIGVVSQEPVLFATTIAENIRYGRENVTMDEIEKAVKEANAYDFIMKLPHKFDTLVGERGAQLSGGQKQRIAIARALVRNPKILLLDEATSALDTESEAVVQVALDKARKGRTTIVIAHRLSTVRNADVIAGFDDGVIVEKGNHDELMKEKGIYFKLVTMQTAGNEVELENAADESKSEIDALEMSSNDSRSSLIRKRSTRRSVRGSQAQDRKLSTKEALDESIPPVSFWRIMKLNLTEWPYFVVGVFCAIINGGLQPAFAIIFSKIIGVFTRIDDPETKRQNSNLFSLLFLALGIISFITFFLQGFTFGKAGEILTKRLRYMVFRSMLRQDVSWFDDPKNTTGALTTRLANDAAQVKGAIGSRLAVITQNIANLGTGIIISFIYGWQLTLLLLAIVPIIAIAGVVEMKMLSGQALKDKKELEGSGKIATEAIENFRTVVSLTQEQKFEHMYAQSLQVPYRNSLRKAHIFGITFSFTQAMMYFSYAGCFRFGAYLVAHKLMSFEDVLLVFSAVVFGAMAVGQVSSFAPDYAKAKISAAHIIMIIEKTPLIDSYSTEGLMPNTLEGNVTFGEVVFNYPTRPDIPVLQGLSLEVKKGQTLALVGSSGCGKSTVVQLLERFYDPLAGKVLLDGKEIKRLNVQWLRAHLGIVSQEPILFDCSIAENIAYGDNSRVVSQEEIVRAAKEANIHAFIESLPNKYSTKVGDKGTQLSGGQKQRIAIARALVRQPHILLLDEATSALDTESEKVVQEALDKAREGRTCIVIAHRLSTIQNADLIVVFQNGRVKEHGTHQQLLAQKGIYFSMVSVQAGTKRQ

For Cc1cc(OCc2ccc([C@@H](C)[C@]3(C)CC(=O)NC3=O)cc2)cc(C2CC2)n1 [Example 1, (3S)-3-[(1R)-1-[4-[(2-cyclopropyl-6-methyl-4-pyridyl)oxymethyl]phenyl]ethyl]-3-methyl-pyrrolidine-2,5-dione], the Kb [1] was 0.57 ± 0.25 nM, the “net efflux ratio (NER) for efflux by Pgp” value [2] was 1.7 and the fraction unbound in brain (fu,brain) ([3]; rat brain homogenate) was 0.043. For the same molecule, the fraction unbound ([3]; rat plasma, read-out: fraction unbound in plasma (fu,plasma)) was 0.071, the “Unbound brain conc. (Cu,brain)” value ([4]; 1.0 hr post 10 mg/kg oral dose, male Sprague-Dawley rats, using rat fu,brain 0.043, mean ± SD) was 41 ± 15 nM and the “Unbound brain conc. (Cu,brain)” value ([4]; 3.0 hr post 10 mg/kg oral dose, male Sprague-Dawley rats, using rat fu,brain 0.043, mean ± SD) was 22 ± 5 nM. For the same molecule, the concentration at 1 h ([4]; rat, brain, 1.0 hr post 10 mg/kg oral dose, mean ± SD, read-out: Total brain conc. (Ctotal,brain)) was 962 ± 341 nM, the concentration at 1 h ([4]; rat, brain, 1.0 hr post 10 mg/kg oral dose, using rat fu,brain 0.043, mean ± SD, read-out: Unbound brain conc. (Cu,brain)) was 41 ± 15 nM and the concentration at 3 h ([4]; rat, brain, 3.0 hr post 10 mg/kg oral dose, mean ± SD, read-out: Total brain conc. (Ctotal,brain)) was 515 ± 111 nM. For the same molecule, the concentration at 3 h ([4]; rat, brain, 3.0 hr post 10 mg/kg oral dose, using rat fu,brain 0.043, mean ± SD, read-out: Unbound brain conc. (Cu,brain)) was 22 ± 5 nM, the concentration at 1 h ([4]; rat, plasma, 1.0 hr post 10 mg/kg oral dose, mean ± SD, read-out: Total plasma conc. (Ctotal,plasma)) was 655 ± 183 nM and the concentration at 1 h ([4]; rat, plasma, 1.0 hr post 10 mg/kg oral dose, using rat fu,plasma 0.071, mean ± SD, read-out: Unbound plasma conc. (Cu,plasma)) was 47 ± 13 nM. The concentration at 3 h ([4]; rat, plasma, 3.0 hr post 10 mg/kg oral dose, mean ± SD, read-out: Total plasma conc. (Ctotal,plasma)) was 368 ± 127 nM, the concentration at 3 h ([4]; rat, plasma, 3.0 hr post 10 mg/kg oral dose, using rat fu,plasma 0.071, mean ± SD, read-out: Unbound plasma conc. (Cu,plasma)) was 26 ± 9 nM and the Kp uu at 1 h ([4]; rat, brain/plasma, 1.0 hr post 10 mg/kg oral dose, male Sprague-Dawley rats, mean ± SD) was 0.89 ± 0.17. The Kp uu at 3 h ([4]; rat, brain/plasma, 3.0 hr post 10 mg/kg oral dose, male Sprague-Dawley rats, mean ± SD) was 0.93 ± 0.43.
